From patent US20250304537A1 (Repare Therapeutics Inc., priority 2022, published 2025) come the findings set out here.

One may read the IC50 as the concentration that gives 50% inhibition.

Chain of recombinant human Myt1 (full length PKMYT1) (Q99640 whole entry): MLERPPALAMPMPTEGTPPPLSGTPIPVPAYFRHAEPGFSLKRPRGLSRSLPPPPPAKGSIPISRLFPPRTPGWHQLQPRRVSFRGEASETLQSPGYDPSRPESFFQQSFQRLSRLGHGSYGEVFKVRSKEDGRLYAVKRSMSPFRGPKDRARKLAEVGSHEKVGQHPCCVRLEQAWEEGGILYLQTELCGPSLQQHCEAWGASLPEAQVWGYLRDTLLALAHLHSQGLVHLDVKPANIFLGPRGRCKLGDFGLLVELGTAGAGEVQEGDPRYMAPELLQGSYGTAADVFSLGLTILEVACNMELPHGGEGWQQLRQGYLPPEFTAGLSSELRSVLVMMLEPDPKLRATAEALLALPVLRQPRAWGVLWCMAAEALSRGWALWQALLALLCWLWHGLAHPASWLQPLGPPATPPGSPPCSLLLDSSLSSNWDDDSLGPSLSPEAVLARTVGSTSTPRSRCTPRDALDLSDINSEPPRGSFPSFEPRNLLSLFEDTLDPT

One test concerns the target recombinant human Myt1 (full length PKMYT1) (Homo sapiens (Human), UniProt Q99640). Kind of test: Recombinant human Myt1 kinase assay (ADP-Glo). As to conditions: 10 μM ATP. The class given is biochemical. How it is done:
Detection of Myt1 kinase activity utilized a recombinant human Myt1 kinase assay measuring the hydrolysis of ATP using a commercially available ADP-Glo Assay (ADP-Glo™ Kinase Assay from Promega, 10 000 assays, #V9102). Briefly, 5 μL recombinant human Myt1 (full length PKMYT1 recombinant human protein expressed in insect cells from Thermo Fisher #A33387; ˜80% purity) was prepared in reaction buffer (70 mM HEPES, 3 mM MgCl2, 3 mM MnCl2, 50 μg/ml PEG 20000, 3 μM Na-orthovanadate, 1.2 mM DTT) and added to 384 well white polystyrene, flat bottom well, non-treated, microplate (Corning #3572). After this, 5 μL of compounds (diluted in reaction buffer to 0.5% DMSO) was added to the microplate and the plate was spun briefly and incubated at 22° C. for 15 minutes. Ultra-Pure Adenosine Triphosphate (ATP) solution (ADP-Glo kit from Promega) was diluted in reaction buffer and 5 μL was added to the microplate, spun down briefly and incubated for 60 minutes at 30° C. The final Myt1 enzyme concentration was 18 nM and the final ATP concentration was 10 μM. After the 60-minute incubation, 15 μL of ADP-Glo reagent was added and the plate was spun briefly and sealed and incubated in the dark for 40 minutes at 22° C. Following this, 30 μL of kinase detection reagent was added per well and the plate was spun briefly, sealed and incubated for 45-60 minutes at 22° C. in the dark. Luminescence was read using the Envision (250 ms integration). The IC50 and the % max inhibition were calculated for each inhibitor compound tested.
In general terms: ADP-Glo first removes unused ATP, then detects ADP through luciferase.
Turning to `Cc1ccc2[nH]ncc2c1-c1cc(-c2ccnc(OC3CCOCC3)n2)nc(C(N)=O)c1N` (atropisomer, axis not shown) [Compound 231], the IC50 amounted to 231 nM.

Take `Cc1ccc2[nH]ncc2c1-c1cc(-c2ccnc(OCCN3CCCC3)n2)nc(C(N)=O)c1N` (atropisomer, axis not shown) [Compound 233]: the half-inhibitory concentration (IC50) stood at 859 nM.

Take `Cc1ccc2[nH]ncc2c1-c1cc(-c2cccc(OCc3ncccn3)n2)nc(C(N)=O)c1N` (atropisomer, axis not shown) [Compound 234]: the IC50 was found to be 1880 nM.

`COCCOc1cccc(-c2cc(-c3c(C)ccc4[nH]ncc34)c(N)c(C(N)=O)n2)n1` (atropisomer, axis not shown) [Compound 270]: the IC50 is 1160 nM.

On to `Cc1ccc2[nH]ncc2c1-c1cc(-c2cccc(OCCN3CCCC3)n2)nc(C(N)=O)c1N` (atropisomer, axis not shown) [Compound 271], for which the IC50 was determined as 1090 nM.

On to `Cc1ccnc(-c2cc(-c3c(C)ccc4[nH]ncc34)c(N)c(C(N)=O)n2)c1` (atropisomer, axis not shown) [Compound 280], for which the IC50 was determined as 11 nM.

On to `CO[C@@H](COc1nccc(-c2cc(-c3c(C)ccc4[nH]ncc34)c(N)c(C(N)=O)n2)n1)c1ccccc1` (atropisomer, axis not shown) [Compound 308], for which the IC50 stood at 1740 nM.

Another test has as its system PKMYT1 (CDK1 pThr14) in FUOV1 cells. Kind of test: PKMYT1 cell-based activity assay, CDK1 pThr14 AlphaLISA in FUOV1 cells. The following applies: 2 h, 2 hours with compound, read-out: FUOV-1 CDK1 pThr14 IC50. An outline of the steps:
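IC50 was derived from AlphaLISA signal (excitation 680 nm, emission 615 nm) for phospho-Thr14 CDK1 in lysates. The detection antibodies were rabbit anti-pThr14 and mouse anti-total CDK1, each at 5 nM. FUOV1 ovarian cells were exposed to compound for 2 hours before lysis.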
(Bead proximity is the source of the signal in Alpha formats.)
With `Cc1ccc2[nH]ncc2c1-c1nc(-c2ccncc2Nc2ncccn2)nc(C(N)=O)c1N` [Compound 951], the IC50 turned out to be 16 nM.

On to `Cc1ccc(-c2nc(C(N)=O)c(N)c(-c3c(F)ccc4[nH]ncc34)n2)c(Nc2ncccc2F)n1` [Compound 952], for which the IC50 was determined as 1 nM.

Regarding `Cc1ccc(-c2nc(C(N)=O)c(N)c(-c3c(F)ccc4[nH]ncc34)n2)c(Nc2ncccn2)n1` [Compound 953], the IC50 worked out at 153 nM.

As for `Cc1ncc(F)c(Nc2nc(F)ccc2-c2nc(C(N)=O)c(N)c(-c3c(C)ccc4[nH]ncc34)n2)n1` [Compound 954, 5-amino-2-(6-fluoro-2-((5-fluoro-2-methylpyrimidin-4-yl)amino)pyridin-3-yl)-6-(5-methyl-1H-indazol-4-yl)pyrimidine-4-carboxamide], the IC50 turned out to be 11 nM.

On to `Cc1ccc2[nH]ncc2c1-c1nc(-c2cc(Cl)ncc2Nc2ncccn2)nc(C(N)=O)c1N` [Compound 955, 5-amino-2-(2-chloro-5-(pyrimidin-2-ylamino)pyridin-4-yl)-6-(5-methyl-1H-indazol-4-yl)pyrimidine-4-carboxamide], for which the IC50 stood at 51 nM.

In the case of `Cc1ccc(-c2nc(C(N)=O)c(N)c(-c3c(C)ccc4[nH]ncc34)n2)c(N[C@H]2C[C@@](C)(O)C2)n1` [Compound 956], the IC50 was determined as 92 nM.

Take `[2H]C([2H])([2H])c1ccc2[nH]ncc2c1-c1nc(-c2cccnc2NC23CC(C#N)(C2)C3)nc(C(N)=O)c1N` [Compound 957, 5-amino-2-[2-[(3-cyano-1-bicyclo[1.1.1]pentanyl)amino]-3-pyridyl]-6-[5-(trideuteriomethyl)-1H-indazol-4-yl]pyrimidine-4-carboxamide]: the IC50 stood at 160 nM.

For `N#Cc1ccc(-c2nc(C(N)=O)c(N)c(-c3c(Cl)ccc4[nH]ncc34)n2)c(Nc2ncccn2)c1` [Compound 958], the IC50 was found to be 32 nM.

For the molecule `[2H]C([2H])([2H])c1ccc2[nH]ncc2c1-c1nc(-c2ccc(C(F)F)nc2Nc2ncccc2F)nc(C(N)=O)c1N` [Compound 959], the IC50 was determined as 8 nM.

For `[2H]C([2H])([2H])c1ccc(-c2nc(C(N)=O)c(N)c(-c3c(C([2H])([2H])[2H])ccc4[nH]ncc34)n2)c(Nc2ncccn2)n1` [Compound 960], the IC50 worked out at 40 nM.

Regarding `[2H]C([2H])([2H])c1ccc2[nH]ncc2c1-c1nc(-c2cccnc2NC23CC(C(=O)OC)(C2)C3)nc(C(N)=O)c1N` [Compound 961, methyl 3-((3-(5-amino-4-carbamoyl-6-(5-(methyl-d3)-1H-indazol-4-yl)pyrimidin-2-yl)pyridin-2-yl)amino)bicyclo[1.1.1]pentane-1-carboxylate], the IC50 came out at 223 nM.

As for `[2H]C([2H])([2H])c1ccc2[nH]ncc2c1-c1nc(-c2cccnc2NC23CC(C(N)=O)(C2)C3)nc(C(N)=O)c1N` [Compound 962, 5-amino-2-(2-((3-carbamoylbicyclo[1.1.1]pentan-1-yl)amino)pyridin-3-yl)-6-(5-(methyl-d3)-1H-indazol-4-yl)pyrimidine-4-carboxamide], the IC50 was 702 nM.

With `COc1c(C(N)=O)nc(-c2cccnc2Nc2nc(F)ccc2F)nc1-c1c(C)ccc2[nH]ncc12` [Compound 963, 2-(2-((3,6-difluoropyridin-2-yl)amino)pyridin-3-yl)-5-methoxy-6-(5-methyl-1H-indazol-4-yl)pyrimidine-4-carboxamide], the IC50 was over 10000 nM.

Consider `[2H]C([2H])([2H])c1ccc2[nH]ncc2c1-c1nc(-c2cc(F)cnc2N[C@H]2C[C@@](C)(O)C2)nc(C(N)=O)c1N` [Compound 964], for which the IC50 was 68 nM.

Take `NC(=O)c1nc(-c2ccc(Cl)nc2Nc2ncccc2F)nc(-c2c(F)ccc3[nH]ncc23)c1N` [Compound 965]: the IC50 is 8 nM.

For `[2H]C([2H])([2H])c1ccc2[nH]ncc2c1-c1nc(-c2ccc(Cl)nc2Nc2nccnc2F)nc(C(N)=O)c1N` [Compound 966], the IC50 came out at 11 nM.

`NC(=O)c1nc(-c2cccnc2NC2CC2)nc(-c2c(Cl)cc(F)c3[nH]ncc23)c1N` [Compound 967]: the IC50 is 212 nM.

`N#Cc1cccnc1Nc1cc(F)ccc1-c1nc(C(N)=O)c(N)c(-c2c(F)ccc3[nH]ncc23)n1` [Compound 968]: the IC50 was 4 nM.

In the case of `N#Cc1cccnc1Nc1nc(F)ccc1-c1nc(C(N)=O)c(N)c(-c2c(F)ccc3[nH]ncc23)n1` [Compound 969], the IC50 came out at 16 nM.

For the molecule `NC(=O)c1nc(-c2ccc(C(F)F)nc2Nc2ncccc2F)nc(-c2c(F)ccc3[nH]ncc23)c1N` [Compound 970], the IC50 worked out at 40 nM.

Take `NC(=O)c1nc(-c2ccc(F)nc2Nc2ncccc2F)nc(-c2c(F)ccc3[nH]ncc23)c1N` [Compound 971]: the IC50 stood at 21 nM.

For `[2H]C([2H])([2H])c1ccc2[nH]ncc2c1-c1nc(-c2ccc(F)nc2Nc2nc(C)ncc2F)nc(C(N)=O)c1N` [Compound 972], the IC50 was 14 nM.

Consider `[2H]C([2H])([2H])c1ccc2[nH]ncc2c1-c1nc(-c2ccc(C(F)F)nc2Nc2nc(C)ncc2F)nc(C(N)=O)c1N` [Compound 973], for which the IC50 stood at 53 nM.

For `[2H]C([2H])([2H])c1ccc2[nH]ncc2c1-c1nc(-c2ccc(C3CC3)nc2Nc2ncccn2)nc(C(N)=O)c1N` [Compound 974, 5-amino-2-(6-cyclopropyl-2-(pyrimidin-2-ylamino)pyridin-3-yl)-6-(5-(methyl-d3)-1H-indazol-4-yl)pyrimidine-4-carboxamide], the IC50 worked out at 186 nM.

Take `CCc1ccc(-c2nc(C(N)=O)c(N)c(-c3c(C)ccc4[nH]ncc34)n2)c(Nc2ncccc2F)n1` [Compound 975]: the half-maximal inhibitory concentration (IC50) is 14 nM.

As to `COc1cc(-c2nc(C(N)=O)c(N)c(-c3c(C)ccc4[nH]ncc34)n2)c(Nc2ncccc2F)cn1` [Compound 976, 5-amino-2-(5-((3-fluoropyridin-2-yl)amino)-2-methoxypyridin-4-yl)-6-(5-methyl-1H-indazol-4-yl)pyrimidine-4-carboxamide], the concentration for half-maximal inhibition (IC50) was 22 nM.

As for `[2H]C([2H])([2H])c1ccc2[nH]ncc2c1-c1nc(-c2ccc(C3CC3)nc2Nc2nc(C)ncc2F)nc(C(N)=O)c1N` [Compound 977], the IC50 was determined as 203 nM.
